By IC50 is commonly meant the midpoint of a concentration-inhibition curve.

Active and inactive are the calls of the source. The rule behind the calls is not given here.

The target of the assay is Induced myeloid leukemia cell differentiation protein Mcl-1 (Homo sapiens) (UniProt Q07820). Briefly: blockers of Bid binding to Mcl-1 – biochemical, TR-FRET, dose response (AID 1418). Particulars: Mcl-1/Bid peptide binding, TR-FRET (europium/Dy647), 2 hr. For orientation: Time-resolved FRET reads energy transfer from a long-lived donor to a nearby acceptor.
Sequence of Induced myeloid leukemia cell differentiation protein Mcl-1 (Homo sapiens) (Q07820 whole entry, looked up): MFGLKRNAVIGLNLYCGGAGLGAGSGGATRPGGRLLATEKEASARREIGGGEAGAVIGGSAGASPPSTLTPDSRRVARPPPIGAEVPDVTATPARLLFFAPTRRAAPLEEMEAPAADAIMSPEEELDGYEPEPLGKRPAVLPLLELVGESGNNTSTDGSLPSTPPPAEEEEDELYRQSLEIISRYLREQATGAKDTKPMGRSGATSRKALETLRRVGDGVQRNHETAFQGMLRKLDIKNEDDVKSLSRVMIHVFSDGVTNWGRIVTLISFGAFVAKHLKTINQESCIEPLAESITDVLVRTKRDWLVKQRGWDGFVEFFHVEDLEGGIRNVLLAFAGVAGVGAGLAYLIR
Consider `O=c1[nH]c(O)c(/C=C2/C=CC(c3cc(Cl)ccc3Cl)=N2)c(=O)[nH]1`, for which the IC50 is 1.07 µM. For the compound `Cn1c2ccccc2c(=O)c2c(=O)n(C3CCCCCC3)c(C3CCCCC3)nc21`, the IC50 was 2.27 µM. On to `COc1cccc(CN(C(=O)/C=C/c2ccc(Cl)cc2)C2CCS(=O)(=O)C2)c1` (stereo not given), for which the IC50 was > 54 µM (inactive). For the compound `CCN(CC)c1ccc2cc(-c3nc4ccccc4[nH]3)c(=O)oc2c1`, the IC50 is 1.62 µM. For the compound `COC(=O)c1ccccc1NC(=O)COC(=O)/C=C/c1ccco1`, the IC50 was > 54 µM (inactive).

On to `CCc1ccc(NC(=O)c2ccnc(C(C)(C)C)c2)cc1`, for which the IC50 is > 54 µM (inactive). `COc1cccc2cc(C(=O)Oc3ccc(NC(C)=O)cc3)c(=O)oc12`: the IC50 was > 54 µM (inactive). Turning to `CC(=O)Cc1cc(O)c2ccccc2c1OC(=O)c1ccc(Br)cc1`, the IC50 is > 54 µM (inactive). Under `Cc1ccc(S(=O)(=O)N(C)CC(O)Cn2c3ccccc3c3ccccc32)cc1` (stereo not given) stands > 54 µM (inactive). For `Cc1ccc(S(=O)(=O)/N=C2/C=C(Sc3ncn[nH]3)C(=O)c3ccccc32)cc1`, the half-inhibitory concentration (IC50) was 2.73 µM. For the compound `CCOC(=O)c1c(NC(=O)CN(C)C)sc(C(=O)N(CC)CC)c1C`, the IC50 was > 54 µM (inactive). For the compound `C=C(C(=O)c1ccccc1)C(C(=C)C(=O)c1ccccc1)c1ccc(OC)cc1`, the IC50 is > 54 µM (inactive). Turning to `O=C(Cc1ccccc1)Nc1scc(-c2ccccc2)c1C(=O)N1CCOCC1`, the IC50 was > 54 µM (inactive).

Regarding `Cc1cc(C)nc(NCC(O)COc2ccccc2C)n1` (stereo not given), the IC50 was > 54 µM (inactive).

With `O=C(NCc1ccco1)c1cccn2c(=O)c3cc4ccccc4cc3nc12`, the IC50 was 0.52 µM. Turning to `O=C(CSc1ccccn1)Nc1ccc2c(c1)C(=O)c1ccccc1C2=O`, the IC50 is 1.72 µM. Regarding `COc1cc(OC)cc(C(=O)N2CCN(Cc3ccccc3C(F)(F)F)CC2)c1`, the IC50 result was “inactive”. Take `CN(C)S(=O)(=O)c1cccc(N=c2scc(-c3ccc4c(c3)NC(=O)CO4)n2CC2CCCO2)c1` (stereo not given): the IC50 is > 54 µM (inactive). With `O=c1c(C(c2ccccc2)c2c(O)sc3ccccc3c2=O)c(O)sc2ccccc12`, the IC50 was 10.6 µM. In the case of `N#C/C(=C1/CCCCCN1)c1nc2ccccc2s1`, the IC50 was > 54 µM (inactive).

As to `Cc1ccc(-c2nnc(SCC(=O)N/N=C/c3ccc(C)s3)n2-c2ccc(C)cc2)cc1`, the IC50 is > 54 µM (inactive). `O=C(NC1CCCC1)c1csc2c1CCCC2`: the IC50 was > 54 µM (inactive). On to `Cc1cccc(N(CC(=O)NC2CCCC2)C(=O)c2cc3cc4cccc(C)c4nc3s2)c1C`, for which the IC50 was > 54 µM (inactive). Take `CCOC(=O)c1sc(N2N=C(C)C(N=Nc3cccc(C)c3)C2=O)nc1C` (stereo not given): the IC50 is 1.42 µM. For the compound `CC1(c2ccc(Cl)cc2Cl)OCC(Cn2ccnc2)O1` (stereo not given), the IC50 is > 54 µM (inactive). As for `N#Cc1cccc(NC(=O)CSc2ccc3c4c(cccc24)C(=O)c2ccccc2-3)c1`, the IC50 was 2.65 µM.

As for `COc1ccc(-c2nnn(CC(=O)N(CCCO)C(C(=O)NC3CCCC3)c3ccncc3)n2)cc1` (stereo not given), the IC50 was > 54 µM (inactive).

In the case of `O=C(Cn1nnc(-c2ccccc2NC(=O)c2cccs2)n1)Nc1ccccc1`, the IC50 is > 54 µM (inactive).

As for `O=C(O)CC(NC(=O)COc1ccc(Cl)cc1Cl)C(=O)O` (stereo not given), the IC50 is > 54 µM (inactive).

On to `O=C1NC(=S)N(C2CC2)C(=O)/C1=C/c1ccc2c(c1)CCN2CCCCl`, for which the IC50 was 0.66 µM. Under `O=C1NN(c2ccc(Cl)c(Cl)c2)C(=O)/C1=C/c1cccc(OC(=O)c2cccs2)c1` stands 6.57 µM; under `CC(C)NC(=O)c1ccc(COCC(F)(F)F)cc1`, > 54 µM (inactive); under `O=C(O)c1ccccc1-c1ccc(/C=c2\sc3nc4cc(Br)cnc4n3c2=O)o1`, 18.5 µM. Under `Cc1ccc(-c2ccc(/C=C3/NC(=O)NC3=O)o2)cc1[N+](=O)[O-]` stands “inactive”. Turning to `Cc1nc2c(-c3ccc(Cl)cc3)cnn2c2c1CCC2`, the IC50 is > 54 µM (inactive).

The values are drawn from PubChem BioAssay AID1418 (Emory University Molecular Libraries Screening Center, 2008).
